# Biological target: human CYP11B2 (Homo sapiens (Human), UniProt P19099)
# Assay: V79-Human-CYP11B2 cell assay
# Type: cell-based
# Settings: V79 cells stably expressing human CYP11B2; 125 nM 11-deoxycorticosterone substrate; aldosterone measured by HTRF
# Description: (§1) Methods for V79-Human-CYP11B2 and V79-Human-CYP11B1 Assays:
# (§2) V79 cell lines stably expressing the either the human CYP11B2 or the human CYP11B1 enzyme were generated using a standard transfection protocol. V79 cells were transfected with plasmids pTriEx3-Hygro-hCyp11B2 or pTriEx3-Hygro-hCyp11B1 using Lipofectamine2000 reagent. V79 cells that stably express the human CYP11B2 or human CYP11B1 enzyme were selected for and maintained in DMEM supplemented with 10% FBS and 400 μg/mL hygromycin for ˜2 weeks. Single cell clones were generated by […] in DMEM supplemented with 10% FBS and 400 μg/mL hygromycin until single colonies were obtained. […] For testing of inhibitors, cells were harvested at 80% confluency with 0.5% Trypsan-EDTA, washed once in PBS, and reconstituted in DMEM+0.1% BSA media at a cell concentration of 600,000 cells/mL for the CYP11B2 assay and 280,000 cells/mL for the CYP11B1 assay. 25 μL of cells were added to a 384 well tissue culture treated plate and mixed with 0.3 μL of inhibitor or DMSO (1% final DMSO concentration) for 1 hour at 37° C., 5% CO2. […] The reaction was carried out for 3 hours at 37° C., 5% CO2 and was stopped by harvesting the supernatants. The amount of product in the supernatant (aldosterone for CYP11B2 assay and cortisol for the CYP11B1 assay) was measured using HTRF-based assay kit (Aldosterone HTRF-CisBio#64ALDPEB, Cortisol HTRF-CisBio #63IDC002-CORT). IC50s for the inhibitor were determined by plotting the amount of product formed against the concentration of inhibitor using sigmoidal dose-response curve (variable slope) fit in GraphPad.
# Chain of human CYP11B2 (P19099 25-503): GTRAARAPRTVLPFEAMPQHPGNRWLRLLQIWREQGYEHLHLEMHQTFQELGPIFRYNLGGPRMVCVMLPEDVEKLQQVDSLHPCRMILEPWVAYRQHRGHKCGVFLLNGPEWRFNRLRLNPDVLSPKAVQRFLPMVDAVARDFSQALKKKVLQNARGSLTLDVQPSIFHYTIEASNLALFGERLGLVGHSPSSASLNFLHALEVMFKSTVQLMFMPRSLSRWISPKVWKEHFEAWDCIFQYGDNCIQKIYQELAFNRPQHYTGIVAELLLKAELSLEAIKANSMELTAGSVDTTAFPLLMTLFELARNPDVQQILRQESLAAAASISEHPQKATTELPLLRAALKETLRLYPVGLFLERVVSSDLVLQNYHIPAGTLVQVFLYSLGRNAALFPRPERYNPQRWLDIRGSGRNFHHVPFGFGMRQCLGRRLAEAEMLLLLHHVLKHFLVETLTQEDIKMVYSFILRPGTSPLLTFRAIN
row,IC50,Compound
1,0.0224 µM,"Cc1ccncc1-c1cn2cc(F)ccc2n1 [Example 6, 6-fluoro-2-(4-methylpyridin-3-yl)imidazo[1,2-a]pyridine]"
2,0.0562 µM,"Cc1cncc(-c2cn3cc(F)ccc3n2)c1 [Example 7, 6-fluoro-2-(5-methylpyridin-3-yl)imidazo[1,2-a]pyridine]"
3,0.0003 µM,"COc1cncc(-c2nc3ccc(F)cn3c2C)c1 [Example 18, 6-fluoro-3-methyl-2-(5-methoxypyridin-3-yl)imidazo[1,2-a]pyridine]"
4,0.00045 µM,"Cc1cncc(-c2nc3ccc(F)cn3c2C)c1 [Example 19, 6-fluoro-3-methyl-2-(5-methylpyridin-3-yl)imidazo[1,2-a]pyridine]"
5,0.0022 µM,"Cc1ccncc1-c1nc2ccc(F)cn2c1C [Example 20, 6-fluoro-3-methyl-2-(4-methylpyridin-3-yl)imidazo[1,2-a]pyridine]"
6,0.0001 µM,Cc1c(-c2cncc3ccccc23)nc2ccc(F)cn12 [Example 25]
7,0.0047 µM,"Cc1c(-c2cncc(F)c2)nc2cc(F)ccn12 [Example 26, 7-fluoro-2-(5-fluoropyridin-3-yl)-3-methylimidazo[1,2-a]pyridine]"

# Biological target: human CYP11B1 (Homo sapiens (Human), UniProt P15538)
# Sequence (P15538 25-503): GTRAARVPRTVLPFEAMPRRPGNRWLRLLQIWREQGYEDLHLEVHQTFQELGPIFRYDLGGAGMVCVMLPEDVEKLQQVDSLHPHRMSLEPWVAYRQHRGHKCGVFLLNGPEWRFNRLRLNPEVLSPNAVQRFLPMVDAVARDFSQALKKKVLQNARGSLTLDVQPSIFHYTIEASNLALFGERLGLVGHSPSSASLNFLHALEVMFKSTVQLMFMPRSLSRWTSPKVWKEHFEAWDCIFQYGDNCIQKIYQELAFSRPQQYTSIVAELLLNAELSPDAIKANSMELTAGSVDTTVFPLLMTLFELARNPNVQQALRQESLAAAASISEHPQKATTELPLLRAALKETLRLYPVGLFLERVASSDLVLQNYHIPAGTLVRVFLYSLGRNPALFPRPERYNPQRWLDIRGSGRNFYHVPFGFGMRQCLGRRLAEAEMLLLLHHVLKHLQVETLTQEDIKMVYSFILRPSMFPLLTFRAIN
# Assay: V79-Human-CYP11B1 cell assay
# Type: cell-based
# Settings: V79 cells stably expressing human CYP11B1; 250 nM 11-deoxycortisol substrate; cortisol measured by HTRF
# Description: as §1, §2
row,IC50,Compound
1,0.0324 µM,"COc1cncc(-c2nc3ccc(F)cn3c2C)c1 [Example 18, 6-fluoro-3-methyl-2-(5-methoxypyridin-3-yl)imidazo[1,2-a]pyridine]"
2,0.0407 µM,"Cc1cncc(-c2nc3ccc(F)cn3c2C)c1 [Example 19, 6-fluoro-3-methyl-2-(5-methylpyridin-3-yl)imidazo[1,2-a]pyridine]"
3,0.135 µM,"Cc1ccncc1-c1nc2ccc(F)cn2c1C [Example 20, 6-fluoro-3-methyl-2-(4-methylpyridin-3-yl)imidazo[1,2-a]pyridine]"
4,0.0148 µM,Cc1c(-c2cncc3ccccc23)nc2ccc(F)cn12 [Example 25]
5,0.912 µM,"Cc1c(-c2cncc(F)c2)nc2cc(F)ccn12 [Example 26, 7-fluoro-2-(5-fluoropyridin-3-yl)-3-methylimidazo[1,2-a]pyridine]"

# Same assay, conditions: starred values of the CYP11B1 column; % inhibition at 10 μM
row,inhibition at 10 µM,Compound
1,63%,"Cc1ccncc1-c1cn2cc(F)ccc2n1 [Example 6, 6-fluoro-2-(4-methylpyridin-3-yl)imidazo[1,2-a]pyridine]"
2,60%,"Cc1cncc(-c2cn3cc(F)ccc3n2)c1 [Example 7, 6-fluoro-2-(5-methylpyridin-3-yl)imidazo[1,2-a]pyridine]"

# Reference: US9518055B2, “Imidazopyridyl compounds as aldosterone synthase inhibitors” (Merck Sharp & Dohme Corp., priority 2011, dated 2016)
